Measurements reported in PMC10452181, “Synthesis and Biological Evaluation of Cyclobutane-Based β3 Integrin Antagonists: A Novel Approach to Targeting Integrins for Cancer Therapy” (Cancers, 2023).

What was measured:
αvβ3 = target: T1, αvβ3 (Homo sapiens, UniProt P05106+P06756); assay: Sk-Mel-2 cell adhesion to immobilised fibronectin (cell-binding assay, MTT readout); type: cell-based; conditions: Sk-Mel-2 adhesion to Fn, mean ± SD
T1 construct: endogenous in cells; host or cells: SK-Mel-2 melanoma cells
Procedure: First, 96-well plates (Corning, VWR) were coated overnight at 4 °C with 0.5 μg/well fibronectin (Sigma). SK-Mel-2 cells were trypsinised, washed and resuspended in RPMI medium only at 10^5 cells/mL. Cells (100 µL/well) were treated with compound (DMSO final concentration 0.1%) at the indicated concentration for 4 hrs on a rotary shaker. Plates were washed (3 × PBS) and blocked with PBS/5% BSA for 2 hrs at 37 °C prior to adding the cells. Cells were incubated on the plates at 37 °C in a humidified chamber with 5% CO2 for 1 hr. The plates were washed 3× with PBS and a 200 µL/well RPMI medium containing 10% FCS added. The plates were incubated overnight at 37 °C as above. Finally, 0.5 mg/mL of 3-(4,5-dimethythiazol-2-yl)-2,5-diphenyl tetrazolium bromide (MTT) was added to each well and the plates incubated for a further 4 h. The medium was removed, and the insoluble formazan dissolved in 150 µL of DMSO. Absorbance was measured at 540 nm using a Thermo Multiskan EX (Thermofisher, UK)and Ascent Software (v2.6). Total binding was determined based on controls lacking any compounds (100% binding) in fibronectin-coated wells and uncoated wells blocked with BSA (0% binding) and corrected for background (no cells, fibronectin-coated).
As an initial test of anti-β3 activity, the ability of compounds to inhibit the adhesion of melanoma cells expressing high levels of αvβ3 and low levels of other RGD-binding integrins such as αvβ5 and α5β1 to immobilised fibronectin was evaluated.
Cells were seeded onto precoated plates in the presence or absence of putative antagonists and the number of adherent cells quantified colorimetrically.

Sk-Mel-2 = assay: in vitro; type: cell-based, human
Procedure: Before use in cell-based assays of integrin function, the effect of compounds on cell proliferation was tested using the MTT assay to avoid adhesion results being confounded by cell death (Supplementary Table S1). The effect of compounds on cell adhesion was then initially tested at a single, nontoxic concentration to identify active antagonists for further characterisation; those displaying a promising activity in the adhesion assay were tested at a wider range of concentrations to determine the IC50 (Table 2). […] Nevertheless, it is a cost-effective initial screening method. page 4: Table S1. Cytotoxicity of compounds on the cell lines used in the functional assays (measured by MTT assay). Cells (2000 cells/well for Sk-Mel-2; 1 x 10^4 cells/mL for M14) were incubated for 96 hours at 37 ° C in a total volume of 200 μL/well (180 μL medium + 20 μ L test compound solution). After 96 hours, the medium was replaced by fresh medium containing 0.5 mg/ml (end conc.) MTT per well, incubated for 4 h then the plate processed and read as described in the main text. […] ICT9053 41 naphthyridine 1 NHSO2Mes H Ester 52.6 ± 0.6 72.7 ± 9.8 ICT9065 42 naphthyridine 1 H H Ester >100 - ICT9079 43 naphthyridine 0 NHSO2Mes H Ester ~100 - ICT9061 44 naphthyridineT 1 NHSO2Mes H Ester 46.8 ± 10.7 - […] Ester 65.4 ± 11.1 >100 […] Ester 9.6 ± 5.7 >100 […] Ester >100 - […] Ester 54.6 ± 11.0 - […] Ester >5 3.3 ± 0.8 […] ICT9028 51 pyrimidine 2 NHSO2Ph H Acid >100 - ICT9031 52 pyrimidineT 1 NHSO2Mes H Acid >100 - ICT9090 53 pyrimidineT 2 NHSO2Mes H Acid >50 - ICT9029 54 pyrimidineT 2 NHSO2Ph H Acid >100 - ICT9063 55 naphthyridine 1 NHSO2Mes H Acid 61.7 ± 2.8 - […] Acid 45.5 ± 7.9 >100 […] 42.5 ± 1.8 >50 RGDS >50 - T trans configuration of cyclobutane sidechains.

αIIbβ3 = target: T2, αIIbβ3 (Homo sapiens, UniProt P05106+P08514); assay: αIIbβ3/fibrinogen purified protein binding ELISA; conditions: mean ± SD
T2 construct: purchased Sigma
Procedure: ELISA assays were performed as previously described with minor modifications. Briefly, serial dilutions of compounds were prepared in dimethyl sulfoxide (DMSO). C8 Maxi Immuno modules (Fisher Scientific) were incubated overnight at 4 °C with 0.5 μg/well of fibrinogen (Sigma) in sterile phosphate buffered saline (PBS, 0.2 g/L KCl, 8.0 g/L NaCl, 0.2 KH2PO4, 1.15 g/L Na2HPO4, pH 7.4). All subsequent wash steps were performed using 25 mM Tris, pH 7.6, 150 mM NaCl, 1 mM MnCl2, 1 mg/mL BSA, and binding/inhibition was carried out in 25 mM Tris, pH 7.6, 150 mM NaCl, 1 mM MnCl2, 1 mM MgCl2, 1 mM CaCl2, 1 mg/mL BSA.
Wells were washed and blocked with a blocking solution (PBS, 0.1% Tween 20, 3% BSA) for 1 h at 37 °C. Compounds were added to the wells at indicated concentrations (final 0.5% DMSO) in the presence of 0.5 µg/well αIIbβ3 (Sigma) and incubated at room temp for 1 h. After 3 washes, primary anti-αIIb (1:200 dilution, Santa Cruz Biotech, Heidelberg, Germany) and antigoat–HRP (1:500 dilution, Dako, Agilent, Santa Clara, CA, USA) were added at room temp for 1 h. The wells were washed and incubated with 0.1 mg/mL tetra-methylbenzidine (Sigma) for 25 min and the reaction was stopped with 1N H2SO4 (100 μL/well). The absorbance was measured at 450 nm using a Multiscan Spectrum reader (Thermo Scientific, Thermofisher, UK) and SkanIT RE (v2.4.4.5) software. Results were plotted as percent binding vs. log concentration and IC50 values determined.

T2 sequence (P08514 32-887 limits assumed): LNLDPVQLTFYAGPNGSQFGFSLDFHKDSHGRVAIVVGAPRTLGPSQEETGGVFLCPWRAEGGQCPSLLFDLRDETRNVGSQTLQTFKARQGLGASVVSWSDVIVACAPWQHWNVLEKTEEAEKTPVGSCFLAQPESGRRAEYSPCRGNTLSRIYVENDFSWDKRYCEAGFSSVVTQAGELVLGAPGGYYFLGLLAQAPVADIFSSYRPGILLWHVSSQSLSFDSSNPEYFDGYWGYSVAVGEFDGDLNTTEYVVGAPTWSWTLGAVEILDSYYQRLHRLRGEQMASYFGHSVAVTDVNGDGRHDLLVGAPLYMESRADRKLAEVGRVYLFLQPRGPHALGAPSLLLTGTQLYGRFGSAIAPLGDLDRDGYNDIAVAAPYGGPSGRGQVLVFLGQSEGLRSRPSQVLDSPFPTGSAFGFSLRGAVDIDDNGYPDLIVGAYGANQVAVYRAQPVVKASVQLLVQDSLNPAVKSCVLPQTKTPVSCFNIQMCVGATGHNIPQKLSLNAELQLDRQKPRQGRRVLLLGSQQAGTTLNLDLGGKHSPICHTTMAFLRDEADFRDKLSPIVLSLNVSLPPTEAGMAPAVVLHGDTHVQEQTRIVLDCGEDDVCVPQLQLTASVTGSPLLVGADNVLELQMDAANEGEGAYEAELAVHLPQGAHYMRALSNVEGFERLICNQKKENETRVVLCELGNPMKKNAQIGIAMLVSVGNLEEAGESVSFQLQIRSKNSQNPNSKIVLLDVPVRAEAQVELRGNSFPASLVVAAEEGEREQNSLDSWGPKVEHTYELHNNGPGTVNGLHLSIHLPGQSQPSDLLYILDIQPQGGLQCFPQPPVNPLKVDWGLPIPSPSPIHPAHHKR
T2 sequence (P08514 891-1039 partner limits assumed): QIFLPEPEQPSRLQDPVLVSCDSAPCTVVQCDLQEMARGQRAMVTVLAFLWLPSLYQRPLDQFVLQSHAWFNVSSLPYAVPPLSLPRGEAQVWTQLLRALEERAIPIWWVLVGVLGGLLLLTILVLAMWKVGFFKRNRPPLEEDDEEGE
T2 sequence (P05106 27-788): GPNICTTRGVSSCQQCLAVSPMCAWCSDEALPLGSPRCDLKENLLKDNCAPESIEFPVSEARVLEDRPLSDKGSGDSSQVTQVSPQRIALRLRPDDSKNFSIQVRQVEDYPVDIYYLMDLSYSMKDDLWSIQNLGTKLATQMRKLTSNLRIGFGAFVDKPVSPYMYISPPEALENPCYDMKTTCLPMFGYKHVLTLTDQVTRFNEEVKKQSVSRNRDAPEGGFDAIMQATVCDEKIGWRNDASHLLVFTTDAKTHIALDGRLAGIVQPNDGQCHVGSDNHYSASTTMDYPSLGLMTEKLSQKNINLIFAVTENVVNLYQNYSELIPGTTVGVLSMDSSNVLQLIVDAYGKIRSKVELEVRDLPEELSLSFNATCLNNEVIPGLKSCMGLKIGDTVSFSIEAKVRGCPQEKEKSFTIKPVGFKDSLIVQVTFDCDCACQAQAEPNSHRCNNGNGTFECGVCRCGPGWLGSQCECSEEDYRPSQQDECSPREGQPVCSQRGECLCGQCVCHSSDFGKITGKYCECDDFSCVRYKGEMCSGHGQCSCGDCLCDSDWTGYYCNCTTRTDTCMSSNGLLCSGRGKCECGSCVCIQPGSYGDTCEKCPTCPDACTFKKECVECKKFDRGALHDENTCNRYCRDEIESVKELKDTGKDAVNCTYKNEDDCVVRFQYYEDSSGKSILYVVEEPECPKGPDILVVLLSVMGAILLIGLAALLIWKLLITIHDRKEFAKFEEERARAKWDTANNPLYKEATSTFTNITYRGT
T1 sequence (P06756 31-889 limits assumed): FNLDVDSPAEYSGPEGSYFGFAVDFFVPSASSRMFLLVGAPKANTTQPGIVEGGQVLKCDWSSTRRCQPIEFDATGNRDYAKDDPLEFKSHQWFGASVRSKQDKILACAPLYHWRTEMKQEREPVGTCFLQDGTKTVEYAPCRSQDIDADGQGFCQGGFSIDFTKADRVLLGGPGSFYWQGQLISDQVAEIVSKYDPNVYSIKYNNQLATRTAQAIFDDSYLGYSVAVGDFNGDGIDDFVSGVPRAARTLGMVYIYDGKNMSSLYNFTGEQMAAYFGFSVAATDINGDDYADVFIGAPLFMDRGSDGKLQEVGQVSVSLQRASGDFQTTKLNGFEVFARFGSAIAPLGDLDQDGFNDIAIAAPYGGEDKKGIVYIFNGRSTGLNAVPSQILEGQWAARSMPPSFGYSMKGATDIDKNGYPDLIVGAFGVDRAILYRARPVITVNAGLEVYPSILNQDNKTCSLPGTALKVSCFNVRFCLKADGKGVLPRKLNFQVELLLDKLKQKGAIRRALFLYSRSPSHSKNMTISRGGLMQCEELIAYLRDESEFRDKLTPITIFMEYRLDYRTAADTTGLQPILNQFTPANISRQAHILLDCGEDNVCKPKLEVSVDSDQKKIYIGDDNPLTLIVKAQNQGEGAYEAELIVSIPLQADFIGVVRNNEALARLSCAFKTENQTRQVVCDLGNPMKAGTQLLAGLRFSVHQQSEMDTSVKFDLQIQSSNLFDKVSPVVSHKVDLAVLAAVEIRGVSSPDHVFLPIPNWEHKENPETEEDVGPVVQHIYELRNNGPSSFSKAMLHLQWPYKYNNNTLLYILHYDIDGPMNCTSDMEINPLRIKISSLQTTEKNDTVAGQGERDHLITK
T1 sequence (P06756 891-1048 partner limits assumed): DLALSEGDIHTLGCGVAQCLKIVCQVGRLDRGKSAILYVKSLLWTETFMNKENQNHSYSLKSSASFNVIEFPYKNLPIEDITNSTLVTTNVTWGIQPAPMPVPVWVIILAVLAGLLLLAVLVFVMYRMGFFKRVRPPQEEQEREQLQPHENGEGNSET
T1 sequence (P05106 27-788): as the sequence (P05106 27-788) above

Adhesion % Inhibition @ 50 μM (αvβ3) | IC50 (Sk-Mel-2) | % Inhibition (αIIbβ3/Fg) @ 50 μM (αIIbβ3) | Adhesion % Inhibition @ 5 μM (αvβ3) | IC50 (αvβ3) | IC50 (αIIbβ3; read-out: IC50 (αIIbβ3/Fg)) | SMILES
– | > 100 µM | – | – | – | – | COC(=O)CCNC(=O)C1CC(CCc2ccc3cccnc3n2)C1 (stereo not drawn) [ICT9065 42, Methyl 3-((1r,3s)-3-(2-(1,8-naphthyridin-2-yl)ethyl)cyclobutanecarboxamido)propanoate]
22.4 ± 29.3% | > 100 µM | – | – | – | – | COC(=O)CCNC(=O)[C@H]1C[C@@H](CCc2ccc3c(n2)NCCC3)C1 [ICT9066 47, Methyl 3-((1r,3s)-3-(2-(5,6,7,8-tetrahydro-1,8-naphthyridin-2-yl)ethyl)cyclobutanecarboxamido)propanoate]
– | ~100 µM | – | 33.5 ± 26.2% | – | – | COC(=O)[C@H](CNC(=O)C1CC(Cc2ccc3cccnc3n2)C1)NS(=O)(=O)c1c(C)cc(C)cc1C (stereo partly drawn) [ICT9079 43, (S)-methyl 3-((1s,3r)-3-((1,8-naphthyridin-2-yl)methyl)cyclobutanecarboxamido)-2-(2,4,6-trimethylphenylsulfonamido)propanoate]
– | 54.6 ± 11 µM | – | 61.5 ± 11.1% | – | – | COC(=O)[C@H](CNC(=O)C1CC(Cc2ccc3c(n2)NCCC3)C1)NS(=O)(=O)c1c(C)cc(C)cc1C (stereo partly drawn) [ICT9080 48, (S)-methyl 3-((1s,3r)-3-((5,6,7,8-tetrahydro-1,8-naphthyridin-2-yl)methyl)cyclobutanecarboxamido)-2-(2,4,6-trimethylphenylsulfonamido)propanoate]

Second part, the compound before the results:

SMILES | Adhesion % Inhibition @ 50 μM (αvβ3) | IC50 (Sk-Mel-2) | % Inhibition (αIIbβ3/Fg) @ 50 μM (αIIbβ3) | Adhesion % Inhibition @ 5 μM (αvβ3) | IC50 (αvβ3) | IC50 (αIIbβ3; read-out: IC50 (αIIbβ3/Fg))
COC(=O)[C@@H](CNC(=O)[C@H]1C[C@@H](CCCNc2ncccn2)C1)NS(=O)(=O)c1ccccc1 [ICT9021 25, (R)-methyl 2-(phenylsulfonamido)-3-((1r,3s)-3-(3-(pyrimidin-2-ylamino)propyl)cyclobutanecarboxamido)propanoate] | 22.2 ± 22.3% | > 100 µM | – | – | – | –
COC(=O)[C@H](CNC(=O)C1CC(CCCNc2ncccn2)C1)NS(=O)(=O)c1ccccc1 (stereo partly drawn) [ICT9023 23, (S)-methyl 2-(phenylsulfonamido)-3-((1r,3r)-3-(3-(pyrimidin-2-ylamino)propyl)cyclobutanecarboxamido)propanoate] | 7.4 ± 15.1% | > 100 µM | 10.9 ± 15.4% | – | – | –
COC(=O)[C@H](CNC(=O)[C@H]1C[C@H](CCNc2ncccn2)C1)NS(=O)(=O)c1c(C)cc(C)cc1C [ICT9024 27, (S)-methyl 3-((1r,3s)-3-(2-(pyrimidin-2-ylamino)ethyl)cyclobutanecarboxamido)-2-(2,4,6-trimethylphenylsulfonamido)propanoate] | 94.2 ± 4.1% | 55.9 ± 4.9 µM | 33.5 ± 2.8% | 39.4 ± 17.1% | 13 ± 3 µM | 50 ± 5 µM
COC(=O)[C@H](CNC(=O)[C@H]1C[C@@H](CCCNc2ncccn2)C1)NS(=O)(=O)c1ccccc1 [ICT9026 29, (S)-methyl 2-(phenylsulfonamido)-3-((1s,3s)-3-(3-(pyrimidin-2-ylamino)propyl)cyclobutanecarboxamido)propanoate] | – | > 100 µM | 31.6 ± 10.7% | – | – | –
COC(=O)[C@H](CNC(=O)C1CC(CCc2ccc3cccnc3n2)C1)NS(=O)(=O)c1ccccc1 (stereo partly drawn) [ICT9054 40, (S)-methyl 3-((1r,3r)-3-(2-(1,8-naphthyridin-2-yl)ethyl)cyclobutanecarboxamido)-2-(phenylsulfonamido)propanoate] | – | 65.2 ± 1.3 µM | – | 48.7 ± 30.6% | – | –
COC(=O)[C@H](CNC(=O)C1CC(CCc2ccc3cccnc3n2)C1)NS(=O)(=O)c1c(C)cc(C)cc1C (stereo partly drawn) [ICT9061 44, (S)-methyl 3-((1s,3s)-3-(2-(1,8-naphthyridin-2-yl)ethyl)cyclobutanecarboxamido)-2-(2,4,6-trimethylphenylsulfonamido)propanoate] | – | 46.8 ± 10.7 µM | – | 32.4 ± 16.1% | – | –
